The text below walks through data of ChEMBL document CHEMBL1155168, “Bound to shock: protection from lethal endotoxemic shock by a novel, nontoxic, alkylpolyamine lipopolysaccharide sequestrant” (Antimicrob Agents Chemother, 2007).

The source made the active and inactive calls. No cut-off for these calls is given here.

A short description of data set [1]: Ex vivo inhibition of Escherichia coli lipopolysaccharide-stimulated IL6 production in human whole blood by multiplexed flow cytometric bead array system. It counts as tissue-based. (Flow cytometry measures light scatter and fluorescence of single cells or particles in a stream.)
Data set [2] in a line: Ex vivo inhibition of Escherichia coli lipopolysaccharide-stimulated IL8 production in human whole blood by multiplexed flow cytometric bead array system. It counts as tissue-based.
Data set [3] in a line: Inhibition of Escherichia coli 055:B5 lipopolysaccharide-stimulated NF-kappaB induction in HEK-Blue cells assessed as expression of secreted alkaline phosphatase by seAP assay. It is filed as cell-based.
The next data set deals with J774.A1. Briefly: Inhibition of LPS-stimulated nitric oxide production in mouse J774A.1 cells after 16 hrs. It counts as functional, cell-based.
Data set [4] in a line: Inhibition of Vibrio cholerae lipopolysaccharide-stimulated NF-kappaB induction in HEK-Blue cells assessed as expression of secreted alkaline phosphatase by seAP assay. It counts as cell-based.
Data set [5] is described as follows: Inhibition of LPS-stimulated NF-kappaB induction in HEK-Blue cells assessed as expression of secreted alkaline phosphatase by seAP assay. It counts as cell-based.
Data set [6] can be described thus: Ex vivo inhibition of Escherichia coli lipopolysaccharide-stimulated TNFalpha production in human whole blood by multiplexed flow cytometric bead array system. It is filed as tissue-based.
Data set [7] can be described thus: Inhibition of Pseudomonas aeruginosa lipopolysaccharide-stimulated NF-kappaB induction in HEK-Blue cells assessed as expression of secreted alkaline phosphatase by seAP assay. It counts as cell-based.
Data set [8] is described as follows: Inhibition of Salmonella enterica serovar Abortus equi lipopolysaccharide-stimulated NF-kappaB induction in HEK-Blue cells assessed as expression of secreted alkaline phosphatase by seAP assay. It is filed as cell-based.
Data set [9] can be described thus: Inhibition of Escherichia coli O111:B4 lipopolysaccharide-stimulated NF-kappaB induction in HEK-Blue cells assessed as expression of secreted alkaline phosphatase by seAP assay. It counts as cell-based.
Data set [10] concerns HEK-Blue. Briefly: Inhibition of TNF-alpha-stimulated NF-kappaB induction in HEK-Blue cells assessed as expression of secreted alkaline phosphatase by seAP assay. Particulars: Homo sapiens. It counts as functional, cell-based.
The subject of data set [11] is Mus musculus. Briefly: Toxicity in mouse at 40 mg/kg/day, sc after 5 days. It is filed as organism-based. Particulars: in vivo, 120 h. The arrangement: route subcutaneous.
Data set [12] concerns Mus musculus. The experiment in a line: Increase in survivality of sc dosed D-galactosamine-primed CF1 mouse model of LPS-induced lethal septic shock administered 1 hr prior to LPS challenge. It is filed as functional, organism-based.
In the next data set the test system is Blood. Briefly: Ex vivo inhibition of TNF-alpha-stimulated T180/Y182 dual phosphorylation of p38 MAPK in human whole blood by flow cytometry. It counts as functional, tissue-based.
The test system of data set [13] is Mus musculus. Briefly: Increase in survivality of sc dosed D-galactosamine-primed mouse model of TNF-alpha-induced lethal septic shock. It counts as functional, organism-based.
In data set [14] the test system is Mus musculus. Briefly: Increase in survivality of ip dosed D-galactosamine-primed mouse model of LPS-induced lethal septic shock administered as precomplex with LPS. It is filed as functional, organism-based.
Data set [15] relates to HEK-Blue. Briefly: Inhibition of phorbol esters-stimulated NF-kappaB induction in HEK-Blue cells assessed as expression of secreted alkaline phosphatase by seAP assay. It is filed as functional, cell-based. Particulars: Homo sapiens.
Data set [16] deals with HEK-Blue. The experiment in a line: Inhibition of ionomycin-stimulated NF-kappaB induction in HEK-Blue cells assessed as expression of secreted alkaline phosphatase by seAP assay. It counts as functional, cell-based. Particulars: Homo sapiens.
For data set [17], the system named is Mus musculus. Briefly: Inhibition of LPS-induced cytokines levels in D-galactosamine-primed mouse model of at 4 mg/kg, sc. It is filed as functional, organism-based. Further details: dose 4 mg/kg.
Data set [18] deals with Escherichia coli. Briefly: Displacement of BODIPY-cadaverine from Escherichia coli O111:B4 lipopolysaccharide.
In data set [19] the test system is Mus musculus. Briefly: Toxicity in mouse in mouse assessed as polyamine level in plasma at 40 mg/kg/day, sc for 5 days relative to control. Particulars: in vivo, 120 h. It is filed as organism-based. The arrangement: route subcutaneous.
The test system of data set [20] is HEK-Blue. The experiment in a line: Inhibition of IL-1-beta-stimulated NF-kappaB induction in HEK-Blue cells assessed as expression of secreted alkaline phosphatase by seAP assay. It is filed as functional, cell-based. Particulars: Homo sapiens.
Data set [21] deals with Escherichia coli. Briefly: Ex vivo inhibition of Escherichia coli lipopolysaccharide-stimulated T180/Y182 dual phosphorylation of p38 MAPK in human whole blood by flow cytometry. It counts as tissue-based.

Turning to POLYMYXIN B [listing 1 of 2 here], the IC50 (in general, the concentration that gives 50% inhibition) was 11000 nM in [1]; 11000 nM in data set [2]; 30 nM in data set [3] (hek-blue); 27 nM in the data set on J774.A1 (j774.a1); 30 nM in data set [4] (hek-blue); 32 nM in data set [5] (hek-blue). The IC50 in data set [6] is 11000 nM; in data set [7] (hek-blue) it was 30 nM; in data set [8] (hek-blue), 562 nM; in data set [9] (hek-blue), 30 nM.

Turning to `CCCCCCCCCCCCCCCCNCCCNCCCNCCCCNCCCN.O=C(O)C(F)(F)F`, the half-inhibitory concentration (IC50) in data set [1] (Escherichia coli, Blood) came out at 3000 nM; in [2] (Escherichia coli, Blood), 3000 nM; in [3] (Escherichia coli, HEK-Blue) it was 30 nM; in the data set on J774.A1 (Mus musculus, J774.A1, 16 h) it was 21 nM; in data set [4] (Vibrio cholerae, HEK-Blue), 30 nM; in data set [5] (HEK-Blue), 32 nM. Moreover, the IC50 in [6] (Escherichia coli, Blood) was found to be 3000 nM; in data set [7] (Pseudomonas aeruginosa, HEK-Blue), 30 nM; in data set [8] (Salmonella enterica, HEK-Blue), 82 nM; in data set [9] (Escherichia coli, HEK-Blue), 30 nM. Moreover, the outcome in the data set on HEK-Blue [10], in the data set with Blood, with Mus musculus [13], with HEK-Blue [15], with HEK-Blue [16] and in the data set on HEK-Blue [20] was inactive. For the same compound, the Activity entry was “Non-toxic” in the data set on Mus musculus [11], “Dose-dependent effect” with Mus musculus [12], “Dose-dependent effect” with Mus musculus [14] and “Non-toxic” in the data set on Mus musculus [19]. Also, the outcome with Mus musculus [17] was Active. Besides, the ED50 in the data set with Escherichia coli [18] amounted to 1200 nM.

Regarding POLYMYXIN B [listing 2 of 2 here], the outcome in the data set with HEK-Blue [10], in the data set with Blood, with HEK-Blue [15], in the data set with HEK-Blue [16] and with HEK-Blue [20] was inactive. Besides, the Activity entry with Escherichia coli [21], in the data set with Mus musculus [12] and in the data set on Mus musculus [14] was “Dose-dependent effect” each time. The compound also yielded an ED50 with Escherichia coli [18] of 1310 nM.
